*1 amine or outer side, *2 acyl side, *3 side chain or, on linkers, in order; H or OH if unused. Where a SMILES comes first, the peptide text is derived from it. Bridges are numbered along the chain shown (N, C = ends). [ ]: non-standard residue; d: D form. The star is where a group is joined. ξ: configuration not given here. NMeHph(3-OMe-4-CONHMe) = CNC(=O)c1ccc(CC[C@H](NC)C(=O)O)cc1OC; X15 = CCCCN(CC(=O)C(C)[C@@H](CC(C)C)C(=O)[*:2])[*:1]; CH2(1,2,4-oxadiazolon-3-yl) = O=c1[nH]c(C*)no1; NMePhe(3-Cl) = CN[C@@H](Cc1cccc(Cl)c1)C(=O)O; X9 = O=C([C@@H](CN[*:1])COCCO)[*:2]; Hyp = O=C(O)[C@@H]1C[C@@H](O)CN1; NMeF = CN[C@@H](Cc1ccccc1)C(=O)O; NMeGABA = CN(CCCC(=O)[*:2])[*:1]; NMeL = CN[C@@H](CC(C)C)C(=O)O; dNMeL = CN[C@H](CC(C)C)C(=O)O; Butyl(3R-OH) = C[C@@H](O)CC*; NMeV = CN[C@H](C(=O)O)C(C)C; Pip = O=C(O)[C@@H]1CCCCN1; Piperidide = C1CCN(*)CC1; NBuGly = CCCCNCC(=O)O; NPrGly = CCCNCC(=O)O; Ethyl(2-OH) = OCC*; ξS = NC(CO)C(=O)O; Sar = CNCC(=O)O; tBu = CC(C)(C)*
Assay: Membrane permeability test of cyclic peptides (Caco-2, modified/improved method of WO 2018/124162)
Conditions: human, Caco-2, Caco-2 (cm/sec), Table 36; Papp; sequences having Papp ≥ 1.0 × 10^−6 at ARC = 3

Row | Compound | Papp [×10⁻⁶ cm/s]
1 | CC[C@H](C)[C@@H]1NC(=O)[C@H](Cc2ccccc2)N(C)C(=O)CN(C)C(=O)C[C@@H](C(=O)N2CCCCC2)NC(=O)[C@H](C(C)C)N(C)C(=O)[C@H](COC(C)(C)C)NC(=O)[C@H](CC(C)C)N(C)C(=O)[C@H](Cc2ccccc2)N(C)C(=O)CN(C)C(=O)[C@H]([C@@H](C)O)NC(=O)[C@H](Cc2ccccc2)N(C)C1=O [pd205] ([Sar][NMeF]I[NMeF]T[Sar][NMeF][NMeL]S(tBu)[NMeV]D-Piperidide; lactam N-11) | 1.8

Same assay, conditions: human, Caco-2, Caco-2 (cm/sec), membrane permeability of cyclic peptides, Caco-2

Row | Compound | Papp [×10⁻⁶ cm/s]
2 | CCCN1CC(=O)N(C)[C@@H](CC(C)C)C(=O)N[C@H](C(=O)N2CCCCC2)CC(=O)N(C)[C@@H](CC(C)C)C(=O)N[C@@H](Cc2ccccc2)C(=O)N(C)[C@@H](CC(C)C)C(=O)N(C)[C@@H](CC(C)C)C(=O)NC[C@@H](COCCO)C(=O)N(C)[C@@H](Cc2ccccc2)C(=O)N(C)[C@@H](CC(C)C)C(=O)N[C@@H]([C@@H](C)O)C1=O [AP132] ([NMeL]F[NMeL][NMeL][X9][NMeF][NMeL]T[NPrGly][NMeL]D-Piperidide; lactam N-11) | 1.3
3 | CC(C)C[C@@H]1NC(=O)[C@H](C(C)C)N(C)C(=O)C[C@@H](C(=O)N2CCCCC2)NC(=O)[C@H](CC(C)C)N(C)C(=O)CN(C)C(=O)[C@H]([C@@H](C)O)NC(=O)[C@H](C(C)C)N(C)C(=O)[C@H](Cc2ccccc2)N(C)C(=O)[C@H](COCC[C@@H](C)O)NC(=O)[C@H](Cc2ccccc2)N(C)C(=O)[C@H](CC(C)C)N(C)C1=O [AP113] ([NMeV]L[NMeL][NMeF]S(Butyl(3R-OH))[NMeF][NMeV]T[Sar][NMeL]D-Piperidide; lactam N-11) | 1.7
4 | CC(C)C[C@@H]1NC(=O)[C@@H]2CCCCN2C(=O)[C@H](Cc2ccccc2)NC(=O)[C@H](C(C)C)N(C)C(=O)[C@H](CC(C)C)N(C)C(=O)[C@H]([C@@H](C)O)NC(=O)[C@H](CC(C)C)N(C)C(=O)[C@@H]2C[C@@H](OCCO)CN2C(=O)[C@H](CC(C)C)N(C)C(=O)[C@@H](CC(C)C)N(C)C(=O)C[C@@H](C(=O)N2CCCCC2)NC1=O [AP236] ([dNMeL][NMeL][Hyp](Ethyl(2-OH))[NMeL]T[NMeL][NMeV]F[Pip]LD-Piperidide; lactam N-11) | 3.8
5 | CC[C@H](C)[C@@H]1NC(=O)[C@H](CC(C)C)N(C)C(=O)CCCN(C)C(=O)C[C@@H](C(=O)N2CCCCC2)NC(=O)[C@H](CC(C)C)N(C)C(=O)[C@H](CC(C)C)N(C)C(=O)[C@H]([C@@H](C)O)NC(=O)[C@H](CC(C)C)N(C)C(=O)C(COCc2noc(=O)[nH]2)NC(=O)[C@H](CC(C)C)N(C)C(=O)[C@H](Cc2cccc(Cl)c2)N(C)C1=O (stereo partly drawn) [AP46] ([NMeGABA][NMeL]I[NMePhe(3-Cl)][NMeL][ξS](CH2(1,2,4-oxadiazolon-3-yl))[NMeL]T[NMeL][NMeL]D-Piperidide; lactam N-11) | 0.22
6 | CNC(=O)c1ccc(CC[C@H]2C(=O)N[C@@H](CC(C)C)C(=O)N(C)[C@@H](CC(C)C)C(=O)N[C@@H]([C@@H](C)O)C(=O)N(C)CC(=O)N(C)[C@@H](CC(C)C)C(=O)N[C@@H](CC(C)C)C(=O)N(C)[C@@H](Cc3ccccc3)C(=O)N(C)[C@@H](CC(C)C)C(=O)N[C@H](C(=O)N3CCCCC3)CC(=O)N[C@H](C(C)C)C(=O)N2C)cc1OC [AP224] ([dV][NMeHph(3-OMe-4-CONHMe)]L[NMeL]T[Sar][NMeL]L[NMeF][NMeL]D-Piperidide; lactam N-11) | 1.1
7 | CCCCN1CC(=O)N(C)[C@@H](CC(C)C)C(=O)NC(COCc2noc(=O)[nH]2)C(=O)N(C)[C@@H](CC(C)C)C(=O)N(C)[C@@H](CC(C)C)C(=O)N[C@H](C(=O)N2CCCCC2)CC(=O)N[C@H](C(C)C)C(=O)N(C)[C@@H](Cc2ccccc2)C(=O)N[C@@H](CC(C)C)C(=O)N(C)[C@@H](CC(C)C)C(=O)N[C@@H]([C@@H](C)O)C1=O (stereo partly drawn) [AP43] ([dV][NMeF]L[NMeL]T[NBuGly][NMeL][ξS](CH2(1,2,4-oxadiazolon-3-yl))[NMeL][NMeL]D-Piperidide; lactam N-11) | 0.82
8 | CCCCN1CC(=O)N(C)[C@@H](Cc2cccc(Cl)c2)C(=O)N(C)[C@@H](CC(C)C)C(=O)N[C@@H]([C@@H](C)CC)C(=O)N(C)[C@@H](CC(C)C)C(=O)N[C@H](C(=O)N2CCCCC2)CC(=O)N(C)CC(=O)N(C)[C@@H](CC(C)C)C(=O)NC(COCc2noc(=O)[nH]2)C(=O)N(C)[C@@H](CC(C)C)C(=O)N[C@@H]([C@@H](C)O)C1=O (stereo partly drawn) [AP49] ([Sar][NMeL][ξS](CH2(1,2,4-oxadiazolon-3-yl))[NMeL]T[NBuGly][NMePhe(3-Cl)][NMeL]I[NMeL]D-Piperidide; lactam N-11) | 0.33
9 | CCCCN1CC(=O)C(C)[C@@H](CC(C)C)C(=O)NC(COCc2noc(=O)[nH]2)C(=O)N(C)[C@@H](Cc2ccccc2)C(=O)N(C)[C@@H](CC(C)C)C(=O)N[C@H](C(=O)N2CCCCC2)CC(=O)N[C@H](CC(C)C)C(=O)N(C)[C@@H](CC(C)C)C(=O)N[C@@H]([C@@H](C)CC)C(=O)N(C)[C@@H](CC(C)C)C(=O)N[C@@H]([C@@H](C)O)C1=O (stereo partly drawn) [AP44] ([dL][NMeL]I[NMeL]T[X15][ξS](CH2(1,2,4-oxadiazolon-3-yl))[NMeF][NMeL]D-Piperidide; lactam N-10) | 0.3
